Read-outs that look alike come from different tables or passages of the source.

For one experiment, the system named is OPM-2. The experiment in a line: Cell Viability Assay (OPM-2 10 FBS). In kind it is cell-based, human. Conditions: OPM-2 cells, CellTiter-Glo, read-out: OPM-2 10% FBS IC50 IP. The method, boiled down:
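Compounds, serially diluted, were left on OPM-2 cells (3000 cells/well, 10% FBS RPMI 1640) for 16 h at 37° C. under 5% CO2.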

The target of a further experiment is Mcl-1/Bim interaction (Homo sapiens (Human), UniProt Q07820). The experiment in a line: Cell Free Mcl-1: Bim Affinity Assay (Mcl-1 HTRF). In kind it is binding. Conditions: TR-FRET, recombinant human Mcl-1(171-327), biotin-Bim(51-76); read-out: Mel-1 HTRF IC50. The method, then: Cell Free Mcl-1: Bim Affinity Assay (Mcl-1 HTRF)
Sequence of Mcl-1/Bim interaction (Q07820 171-327): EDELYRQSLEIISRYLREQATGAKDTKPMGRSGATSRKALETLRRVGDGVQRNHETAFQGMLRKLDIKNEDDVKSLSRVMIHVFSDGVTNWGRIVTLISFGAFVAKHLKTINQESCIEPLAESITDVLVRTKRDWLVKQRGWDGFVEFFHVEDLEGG
The inhibition of the Mcl-1/Bim interaction was measured using a time-resolved fluorescence resonance energy transfer (TR-FRET) assay. The recombinant human Mcl-1 (C-terminally 6×His tagged Mcl-1 containing residues 171-327) was generated at Amgen Inc (Thousand Oaks, Calif.). A biotinylated peptide derived from human Bim (residues 51-76) was purchased from CPC Scientific (San Jose, Calif.). The TR-FRET assay was conducted in a 384-well white OptiPlate™ (PerkinElmer, Waltham, Mass.) in a total volume of 40 μL. The reaction mixture contained 0.1 nM Mcl-1(171-327), 0.05 nM biotin-Bim(51-76), 0.05 nM LANCER Eu-W1024 Anti-6×His (PerkinElmer), 0.072 nM Streptavidin-Xlent (Cisbio, Bedford, Mass.), and serially diluted test compounds in the binding buffer of 20 mM Hepes, pH 7.5, 150 mM NaCl, 0.016 mM Brij©35, and 1 mM dithiothreitol. Test compounds were pre-incubated with Mcl-1(171-327) and biotin-Bim (51-76) for 60 min before addition of the detection mixture (LANCE Eu-W1024 Anti-6×His and Streptavidin-Xlent). The reaction plates were further incubated overnight and then were read on an Envision® multimode reader (PerkinElmer). Fluorescence signals were measured at 620 nm (40-nm bandwidth) and 665 nm (7.5-nm bandwidth) with a 60 μs delay after excitation at 320 nm (75-nm bandwidth). The signal ratio at 665/620 nm corresponded to the Mcl-1/Bim interaction and was used in all data analyses. The IC50 values of test compounds were determined from duplicate data by analyzing competition curves using a four-parameter sigmoidal model in GraphPad Prism (GraphPad Software, San Diego, Calif.) or in Genedata Screener® (Genedata, Basel, Switzerland).

Take `CO[C@H]1CO[C@@H]([C@@H]2CCC[C@H](C)[C@@H](C)S(=O)(=O)NC(=O)c3ccc4c(c3)N(C[C@@H]3CC[C@H]32)C[C@@]2(CCCc3cc(Cl)ccc32)CO4)OC1` (single isomer, unassigned) [Example 26]: the IC50 turned out to be 14600 nM with OPM-2 (16 h) and 6.16 nM on Mcl-1/Bim interaction.
For `C[C@@H]1[C@@H](C)CCC[C@H]([C@H]2OC[C@H](N)CO2)[C@@H]2CC[C@H]2CN2C[C@@]3(CCCc4cc(Cl)ccc43)COc3ccc(cc32)C(=O)NS1(=O)=O` (relative stereo) [Example 18], in that order: 1050 nM and 1.37 nM.
For `C[C@@H]1[C@@H](C)CCC[C@H](C2OCCCO2)[C@@H]2CC[C@H]2CN2C[C@@]3(CCCc4cc(Cl)ccc43)COc3ccc(cc32)C(=O)NS1(=O)=O` [Example 8, (1S,3′R,6′R,7′S,11′S,12′R)-6-chloro-7′-(1,3-dioxan-2-yl)-11′,12′-dimethyl-3,4-dihydro-2H,15′H-spiro[naphthalene-1,22′-[20]oxa[13]thia[1,14]diazatetracyclo [14.7.2.0~3,6~.0~19,24~]pentacosa[16,18,24]trien]-15′-one 13′,13′-dioxide], in that order: 7360 nM and 1.67 nM.
For `C[C@@H]1[C@@H](C)C/C=C/[C@H]([C@H]2OC[C@@H](N(C)C)CO2)[C@@H]2CC[C@H]2CN2C[C@@]3(CCCc4cc(Cl)ccc43)COc3ccc(cc32)C(=O)NS1(=O)=O` (relative stereo) [Example 97], in that order: 84 nM and 0.308 nM.
Regarding `C[C@H]1CCC[C@H]([C@H]2OC[C@@H](N(C)C)CO2)[C@@H]2CC[C@H]2CN2C[C@@]3(CCCc4cc(Cl)ccc43)COc3ccc(cc32)C(=O)NS(=O)(=O)C1` (stereo in doubt) [Example 77], the 50% inhibitory concentration (IC50) stood at 595 nM with OPM-2 (Homo sapiens, OPM-2, 16 h) and 2.65 nM at Mcl-1/Bim interaction.
In the case of `CC(=O)N1C[C@@H]2O[C@H]([C@H]3CCC[C@H](C)[C@@H](C)S(=O)(=O)NC(=O)c4ccc5c(c4)N(C[C@@H]4CC[C@H]43)C[C@@]3(CCCc4cc(Cl)ccc43)CO5)O[C@@H]2C1` [Example 37, (1S,3′R,6′R,7′S,11′S,12′R)-7′-((2s,3aR,6aS)-5-acetyltetrahydro-3aH-[1,3]dioxolo[4,5-c]pyrrol-2-yl)-6-chloro-11′,12′-dimethyl-3,4-dihydro-2H,15′H-spiro[naphthalene-1,22′-[20]oxa[13]thia[1,14]diazatetracyclo [14.7.2.0~3,6~.0~19,24~]pentacosa[16,18,24]trien]-15′-one 13′,13′-dioxide], the IC50 was found to be 148 nM in the experiment with OPM-2 (16 h) and 0.098 nM on Mcl-1/Bim interaction.
In the same order, the values of `COC[C@H]1[C@@H](C)CCC[C@H]([C@H]2OC[C@@H](N(C)C)CO2)[C@@H]2CC[C@H]2CN2C[C@@]3(CCCc4cc(Cl)ccc43)COc3ccc(cc32)C(=O)NS1(=O)=O` [Example 88, (1S,3′R,6′R,7′S,11′S,12′R)-6-chloro-7′-(cis-5-(dimethylamino)-1,3-dioxan-2-yl)-12′-(methoxymethyl)-11′-methyl-3,4-dihydro-2H,15′H-spiro[naphthalene-1,22′-[20]oxa[13]thia[1,14]diazatetracyclo [14.7.2.0~3,6~.0~19,24~]pentacosa[16,18,24]trien]-15′-one 13′,13′-dioxide] are 335 nM and 4.37 nM.
For `C[C@@H]1[C@@H](C)CCC[C@H]([C@H]2OC[C@H](O)CO2)[C@@H]2CC[C@H]2CN2C[C@@]3(CCCc4cc(Cl)ccc43)COc3ccc(cc32)C(=O)NS1(=O)=O` [Example 11, (1S,3′R,6′R,7′S,11′S,12′R)-6-chloro-7′-(trans-5-hydroxy-1,3-dioxan-2-yl)-11′,12′-dimethyl-3,4-dihydro-2H,15′H-spiro[naphthalene-1,22′-[20]oxa[13]thia[1,14]diazatetracyclo [14.7.2.0~3,6~.0~19,24~]pentacosa[16,18,24]trien]-15′-one 13′,13′-dioxide], in that order: 260 nM and 0.29 nM.
For `C[C@@H]1[C@@H](C)CCC[C@H]([C@H]2OC[C@@H](N(C)C3CC3)CO2)[C@@H]2CC[C@H]2CN2C[C@@]3(CCCc4cc(Cl)ccc43)COc3ccc(cc32)C(=O)NS1(=O)=O` [Example 69, (1S,3′R,6′R,7′S,11′S,12′R)-6-chloro-7′-(cis-5-(cyclopropyl(methyl)amino)-1,3-dioxan-2-yl)-11′,12′-dimethyl-3,4-dihydro-2H,15′H-spiro[naphthalene-1,22′-[20]oxa[13]thia[1,14]diazatetracyclo [14.7.2.0~3,6~.0~19,24~]pentacosa[16,18,24]trien]-15′-one 13′,13′-dioxide], in that order: 415 nM and 0.535 nM.
For the compound `C[C@@H]1[C@@H](C)CCC[C@@H]([C@H]2OC[C@@H](N3CC(O)C3)CO2)[C@@H]2CC[C@H]2CN2C[C@@]3(CCCc4cc(Cl)ccc43)COc3ccc(cc32)C(=O)NS1(=O)=O` (single isomer, unassigned) [Example 61], the IC50 was 1010 nM with OPM-2 (16 h) and 0.455 nM at Mcl-1/Bim interaction.
For `C[C@@H]1[C@@H](C)CCC[C@@H]([C@H]2OC[C@@H](N3CC(F)C3)CO2)[C@@H]2CC[C@H]2CN2C[C@@]3(CCCc4cc(Cl)ccc43)COc3ccc(cc32)C(=O)NS1(=O)=O` (single isomer, unassigned) [Example 51], in that order: 1010 nM and 0.754 nM.
In the same order, the values of `C[C@@H]1[C@@H](C)CCC[C@H]([C@H]2OC[C@](N)(CO)CO2)[C@@H]2CC[C@H]2CN2C[C@@]3(CCCc4cc(Cl)ccc43)COc3ccc(cc32)C(=O)NS1(=O)=O` [Example 40, (1S,3′R,6′R,7′S,11′S,12′R)-7′-(cis-5-amino-5-(hydroxymethyl)-1,3-dioxan-2-yl)-6-chloro-11′,12′-dimethyl-3,4-dihydro-2H,15′H-spiro[naphthalene-1,22′-[20]oxa[13]thia[1,14]diazatetracyclo [14.7.2.0~3,6~.0~19,24~]pentacosa[16,18,24]trien]-15′-one 13′,13′-dioxide] are 1560 nM and 0.577 nM.
For `CN[C@H]1CO[C@H]([C@H]2CCC[C@H](C)[C@@H](C)S(=O)(=O)NC(=O)c3ccc4c(c3)N(C[C@@H]3CC[C@H]32)C[C@@]2(CCCc3cc(Cl)ccc32)CO4)OC1` [Example 49, (1S,3′R,6′R,7′S,11′S,12′R)-6-chloro-11′,12′-dimethyl-7′-(trans-5-(methylamino)-1,3-dioxan-2-yl)-3,4-dihydro-2H,15′H-spiro[naphthalene-1,22′-[20]oxa[13]thia[1,14]diazatetracyclo [14.7.2.0~3,6~.0~19,24~]pentacosa[16,18,24]trien]-15′-one 13′,13′-dioxide], in that order: 966 nM and 1.52 nM.
`CCN(C)[C@H]1CO[C@@H]([C@H]2CCC[C@H](C)[C@@H](C)S(=O)(=O)NC(=O)c3ccc4c(c3)N(C[C@@H]3CC[C@H]32)C[C@@]2(CCCc3cc(Cl)ccc32)CO4)OC1` (relative stereo) [Example 46]: the results for the IC50 with OPM-2 (16 h) and at Mcl-1/Bim interaction were 47 nM and 0.34 nM, respectively.
In the same order, the values of `C[C@@H]1[C@@H](C)CCC[C@H]([C@H]2OC[C@H](N)CO2)[C@@H]2CC[C@H]2CN2C[C@@]3(CCCc4cc(Cl)ccc43)COc3ccc(cc32)C(=O)NS1(=O)=O` (relative stereo) [Example 17] are 194 nM and 0.645 nM.
For the compound `C[C@@H]1[C@@H](C)CCC[C@H]([C@H]2O[C@H]3CNC[C@H]3O2)[C@@H]2CC[C@H]2CN2C[C@@]3(CCCc4cc(Cl)ccc43)COc3ccc(cc32)C(=O)NS1(=O)=O` (stereo in doubt) [Example 9, (1S,3′R,6′R,7′R,11′S,12′R)-6-chloro-11′,12′-dimethyl-7′-((2r,3aR,6aS)-tetrahydro-3aH-[1,3]dioxolo[4,5-c]pyrrol-2-yl)-3,4-dihydro-2H,15′H-spiro[naphthalene-1,22′-[20]oxa[13]thia[1,14]diazatetracyclo [14.7.2.0~3,6~.0~19,24~]pentacosa[16,18,24]trien]-15′-one 13′,13′-dioxide], the IC50 came out at 381 nM in the experiment with OPM-2 (16 h) and 0.49 nM at Mcl-1/Bim interaction.
For `C[C@@H]1[C@@H](C)CCC[C@H]([C@H]2OC[C@@](CO)(N(C)C)CO2)[C@@H]2CC[C@H]2CN2C[C@@]3(CCCc4cc(Cl)ccc43)COc3ccc(cc32)C(=O)NS1(=O)=O` (relative stereo) [Example 81, (1S,3′R,6′R,7′S,11′S,12′R)-6-chloro-7′-(cis-5-(dimethylamino)-5-(hydroxymethyl)-1,3-dioxan-2-yl)-11′,12′-dimethyl-3,4-dihydro-2H,15′H-spiro[naphthalene-1,22′-[20]oxa[13]thia[1,14]diazatetracyclo [14.7.2.0~3,6~.0~19,24~]pentacosa[16,18,24]trien]-15′-one 13′,13′-dioxide], in that order: 2540 nM and 3.32 nM.

These data come from US11364248B2 (AMGEN INC., priority 2017, dated 2022).
